{
  "source": "patent US11585819B2",
  "about": "“Bistrifilate-based fluorogenic probes for detection of superoxide anion radical” (THE UNIVERSITY OF HONG KONG, priority 2014, dated 2023)",
  "key": {"[1]": {"system": "HCT116 (human colon cancer cells), RAW264.7 (mouse macrophages), BV-2 (mouse microglia)", "test": "Confocal imaging with HKSOX-1r of O2^•− induced by mitochondrial respiratory inhibitors", "assay_type": "cell-based", "experimental": "To validate the inhibitor effects, three different types of cell were used: HCT116 (human colon cancer cells), RAW264.7 (mouse macrophages), and BV-2 (mouse microglia).\n(§1) In each group, upper: fluorescence images; lower: fluorescence images merged with bright field images.\n(left) Untreated cells incubated with probe alone for 30 min. (right) Cells co-incubated with probe and antimycin A (5 μM) for 30 min. Upper: fluorescence images; lower: fluorescence images merged with bright field images."}, "[2]": {"system": "Hela (human cervical epithelial cancer cells), BV-2 (mouse microglia), RAW264.7 (mouse macrophages)", "test": "Confocal imaging with HKSOX-2 of O2^•− induced by mitochondrial respiratory inhibitors", "assay_type": "cell-based", "set-up": "probe fluorescence response upon induction of mitochondrial O2^•−: dose or concentration left out as unconfirmed", "experimental": "We also tested HKSOX-2 (5 μM) in detection of O2^•− induced by mitochondrial respiratory inhibitors (30 min treatment): antimycin A (complex III inhibitor; 10 μM), rotenone (complex I inhibitor; 10 μM) and FCCP ([…]; 10 μM). To validate the inhibitor effects, three different types of cell were used: Hela (human cervical epithelial cancer cells), BV-2 (mouse microglia), and RAW264.7 (mouse macrophages).\nas §1"}, "[3]": {"system": "mouse macrophages (RAW264.7 cells)", "test": "Confocal imaging of endogenous O2^•− with HKSOX-2m in PMA-activated macrophages", "assay_type": "cell-based", "settings": "30 min; for effect on HKSOX-2m fluorescence in PMA-stimulated macrophages: Mdivi-1 100 μM, Gö6983 100 nM", "experimental": "(§2) We assessed the application of HKSOX-2m (2 μM) in confocal imaging of O2^•− in different types of cell. For detection of endogenous O2^•−, two different cell types were used: mouse macrophages (RAW264.7 cells) and mouse microglia (BV-2 cells). PMA (phorbol-12-myristate-13-acetate), a PKC activator and acute O2^•− inducer, was used to activate macrophages. The chemical scavenger TEMPOL (4-hydroxy-TEMPO; 300 μM) was used to remove O2^•− in activated macrophages. Mdivi-1 (100 μM), a Drp-1 (dynamin-related protein 1) inhibitor that inhibits mitochondrial fission and subsequent mitochondrial O2^•− production, was used to block mitochondrial O2^•− formation. Additionally, Gö6983 (100 nM), a PKC inhibitor, was used to abolish PMA-mediated effects in O2^•− induction."}, "[4]": {"system": "mouse microglia (BV-2 cells)", "test": "Confocal imaging of endogenous O2^•− with HKSOX-2m in PMA-activated microglia", "assay_type": "cell-based", "settings": "30 min; for effect on HKSOX-2m fluorescence in PMA-stimulated microglia: Mdivi-1 100 μM, Gö6983 100 nM", "experimental": "as §2"}, "[5]": {"system": "RAW264.7 mouse macrophages", "test": "Confocal imaging of endogenous O2^•− with HKSOX-1r in LPS/IFN-γ activated macrophages", "assay_type": "cell-based", "experimental": "We assessed the application of HKSOX-1r in confocal imaging of O2^•− in different types of cell. For detection of endogenous O2^•−, we used mouse macrophages (RAW264.7 cells) as a cellular model. Bacterial lipopolysaccharide (LPS from Salmonella typhimurium; 500 ng/mL) and the proinflammatory cytokine interferon-γ (IFN-γ from mouse; 50 ng/mL) were used to activate macrophages. […] Additionally, the O2^•− decomposition catalyst FeTMPyP (50 μM) and chemical scavenger TEMPOL (4-hydroxy-TEMPO; 300 μM) were used to remove O2^•− in activated macrophages.\nThe cells were co-stained with mitochondrial dye MitoTracker Red (50 nM) and nuclear DNA dye Hoechst 33342 (150 ng/mL) for 30 min. Merged: all fluorescence images merged. (a) Untreated cells; (b) cells stimulated with LPS (500 ng/mL) and IFN-γ (50 ng/mL) for 14 h, followed by HKSOX-1r staining for 30 min; (c) cells co-treated with LPS/IFN-γ and gp91ds-tat (2 μM) for 14 h, followed by HKSOX-1r staining (30 min); (d) cells stimulated with LPS/IFN-γ for 14 h, followed by co-incubation of HKSOX-1r and FeTMPyP (50 μM) for 30 min; (e) cells stimulated with LPS/IFN-γ for 14 h, followed by co-incubation of HKSOX-1r and TEMPOL (300 μM) for 30 min."}, "[6]": {"test": "Fluorescence response of probe to O2^•− generated by xanthine/xanthine oxidase and to other oxidants, reductants, esterase and GSH in phosphate buffer", "settings": "1 μM probe", "experimental": "The stock solution of HKSOX-1 (10 mM) is diluted in 0.1 M potassium phosphate buffer at pH 7.4 to obtain a 10 μM solution, with excitation and emission spectra at 509 nm and 534 nm, respectively. As expected, the probe HKSOX-1 was non-fluorescent (FIG. 1).\nThe stock solution of HKSOX-2 (1 mM) is diluted in 0.1 M potassium phosphate buffer at pH 7.4 to obtain a 1 μM solution, with excitation and emission spectra at 535 nm and 562 nm, respectively."}, "[7]": {"system": "BV-2 mouse microglial cells", "test": "Confocal imaging comparison of HKSOX-2m and MitoSOX Red with multiple superoxide inducers, co-staining with MitoTracker Green and Hoechst", "assay_type": "cell-based", "settings": "for fluorescence with various stimulants: 40 min; for fluorescence turn-on response: Ex 543 nm", "experimental": "To further validate the performance of HKSOX-2m as a mitochondria-targeting superoxide probe, we conducted confocal imaging of HKSOX-2m with multiple superoxide inducers in BV-2 mouse microglial cells (FIG. 11), and compared HKSOX-2m's performance with that of MitoSOX Red™ (a widely used commercial fluorescent probe for mitochondrial superoxide detection; Invitrogen), by using the same drugs as stimulants (FIG. 12). Briefly, BV-2 cells were co-incubated for 40 min with probes (HKSOX-2m or MitoSOX Red™) and general superoxide inducers (PMA and zymosan, which elicit superoxide production from multiple superoxide sources including mitochondria) or specific mitochondrial superoxide inducers (diethyl succinate, diethyl malonate, and rotenone, which target the mitochondrial respiratory chain complexes). […] Slight spatial shifts in fluorescence signal were occasionally observed in the HKSOX-2m and MitoTracker Green channels, which could be accounted for by mitochondrial dynamics and time lag in confocal laser scanning for each channel. […] In fact, fluorescence distribution of the mitochondrial dye MitoTracker Green (Ex 488; Em 505 nm long-pass) was grossly distorted in the presence of MitoSOX Red™ (due to its broad tailing in emission spectrum), resulting in a loss of mitochondrial morphology."}, "[8]": {"system": "BV-2 mouse microglial cells", "settings": "MitoSOX Red 5 μM (maximal dose according to manufacturer's protocol), extended incubation; cited from earlier work"}, "[9]": {"settings": "TEMPOL 300 μM, readout HKSOX-2m 2 μM"}, "[10]": {"settings": "30 min, antimycin A, rotenone, FCCP 5 μM, malonic acid 500 μM, readout HKSOX-1r 2 μM"}, "[11]": {"settings": "30 min, antimycin A, rotenone, FCCP 10 μM, readout HKSOX-2"}},
  "note": "Like-named read-outs stand apart in the source and are kept apart here.",
  "data": [
    {"compound": "N#CC(C#N)=NNc1ccc(OC(F)(F)F)cc1", "note": "[FCCP]", "values": [
      {"measurement": "degree of efficacy in inducing mitochondrial O2^•− production (rank order)", "setting": "[1]", "value": "antimycin A>FCCP>>rotenone>>malonic acid"},
      {"measurement": "degree of efficacy in inducing mitochondrial O2^•− production (rank order)", "setting": "[2]", "value": "antimycin A>FCCP>>rotenone"}
    ]},
    {"compound": "COc1ccc2c(c1)c(C1=C(c3c[nH]c4ccccc34)C(=O)NC1=O)cn2CCCN(C)C", "note": "[Gö6983]", "values": [
      {"measurement": "effect on HKSOX-2m fluorescence in PMA-stimulated macrophages", "setting": "[3]", "value": "reduced to near basal level"},
      {"measurement": "effect on HKSOX-2m fluorescence in PMA-stimulated microglia", "setting": "[4]", "value": "reduced to near basal level"}
    ]},
    {"compound": "COC(=O)CN(CC(=O)OC)C(=O)c1ccc2c(c1)C(=O)OC21c2cc(F)c(OS(=O)(=O)C(F)(F)F)c(F)c2Oc2c1cc(F)c(OS(=O)(=O)C(F)(F)F)c2F", "note": "[HKSOX-1r]", "values": [
      {"measurement": "probe fluorescence in stimulated macrophages relative to untreated ones", "setting": "[5]; HKSOX-1r 2 μM, 30 min staining, LPS 500 ng/mL and IFN-γ 50 ng/mL for 14 h", "value": "much stronger fluorescence signals"},
      {"measurement": "probe fluorescence response upon induction of mitochondrial O2^•−", "setting": "[1]; HKSOX-1r at 2 μM, 30 min", "value": "strong fluorescence response"}
    ]},
    {"compound": "CCOC(=O)CCCN1c2cc3c(cc2C(C)CC1(C)C)C1(OC(=O)c2ccccc21)c1cc(F)c(OS(=O)(=O)C(F)(F)F)c(F)c1O3", "note": "(stereo not drawn) [HKSOX-2]", "values": [
      {"measurement": "probe fluorescence response upon induction of mitochondrial O2^•−", "setting": "[2]; 30 min", "value": "strong fluorescence response"},
      {"measurement": "enhancement in fluorescence intensity upon O2^•−", "setting": "[6]; 10 equiv of O2^•− generated by X/XO system, 15 min, pH 7.4", "value": "> 23", "unit": "fold"},
      {"measurement": "increase in fluorescence signals by other oxidants, reductants, esterase and GSH", "setting": "[6]; 10 equiv of H2O2, NO, 1O2, ROO•, TBHP, •OH, ONOO−, HOCl, Fe2+, ascorbic acid, 1,4-hydroquinone, esterase 10 U/mL, GSH 5 mM", "value": "negligible increase"}
    ]},
    {"compound": "CC1CC(C)(C)N(CCCC(=O)N2CCN(C(=O)CCCC[P+](c3ccccc3)(c3ccccc3)c3ccccc3)CC2)c2cc3c(cc21)C1(OC(=O)c2ccccc21)c1cc(F)c(OS(=O)(=O)C(F)(F)F)c(F)c1O3", "note": "(stereo not drawn) [HKSOX-2m]", "values": [
      {"measurement": "fluorescence with various stimulants", "setting": "[7]; HKSOX-2m 2 μM, PMA, zymosan, diethyl succinate, diethyl malonate, rotenone", "value": "moderate to strong fluorescence"},
      {"measurement": "fluorescence turn-on response", "setting": "[7]; HKSOX-2m working dose 2 μM, Em 559-623 nm band-pass", "value": "highly efficient"},
      {"measurement": "probe fluorescence in PMA-stimulated macrophages relative to untreated ones", "setting": "[3]; HKSOX-2m 2 μM, PMA 200 ng/mL", "value": "much stronger fluorescence signals"},
      {"measurement": "probe fluorescence in PMA-stimulated microglia relative to untreated ones", "setting": "[4]; HKSOX-2m 2 μM, PMA 200 ng/mL", "value": "much stronger fluorescence signals"}
    ]},
    {"compound": "COc1cc(-n2c(=S)[nH]c3ccccc3c2=O)c(Cl)cc1Cl", "note": "[Mdivi-1]", "values": [
      {"measurement": "effect on HKSOX-2m fluorescence in PMA-stimulated macrophages", "setting": "[3]", "value": "reduced to near basal level"},
      {"measurement": "effect on HKSOX-2m fluorescence in PMA-stimulated microglia", "setting": "[4]", "value": "reduced to near basal level"}
    ]},
    {"compound": "Nc1ccc2c(c1)C(c1ccccc1)N(CCCCCC[P+](c1ccccc1)(c1ccccc1)c1ccccc1)c1cc(N)ccc1-2.[I-]", "note": "(stereo not drawn) [MitoSOX Red™]", "values": [
      {"measurement": "toxicity of the working dose", "setting": "[7]; MitoSOX Red 4 μM", "value": "near-toxic"},
      {"measurement": "fluorescence with various stimulants", "setting": "[7]; MitoSOX Red 4 μM, same stimulants", "value": "low to moderate fluorescence"},
      {"measurement": "fluorescence turn-on response", "setting": "[7]; MitoSOX Red working dose 4 μM", "value": "rather sluggish"},
      {"measurement": "toxicity of the maximal dose", "setting": "[8]", "value": "cytotoxic"}
    ]},
    {"compound": "CC1(C)CC(O)CC(C)(C)N1[O]", "note": "[TEMPOL, 4-hydroxy-TEMPO]", "values": [
      {"measurement": "effect on HKSOX-1r fluorescence in LPS/IFN-γ activated macrophages", "setting": "[5]; FeTMPyP 50 μM or TEMPOL 300 μM co-incubated with HKSOX-1r for 30 min", "value": "substantially attenuated"},
      {"measurement": "effect on the PMA-induced surge in O2^•− production", "setting": "[3]; [9]", "value": "greatly suppressed"},
      {"measurement": "effect on the PMA-induced surge in O2^•− production", "setting": "[4]; [9]", "value": "greatly suppressed"}
    ]},
    {"compound": "O=C(O)CC(=O)O", "note": "[malonic acid]", "values": [
      {"measurement": "degree of efficacy in inducing mitochondrial O2^•− production (rank order)", "setting": "[1]; [10]", "value": "antimycin A>FCCP>>rotenone>>malonic acid"}
    ]},
    {"compound": "C=C(C)[C@H]1Cc2c(ccc3c2O[C@@H]2COc4cc(OC)c(OC)cc4[C@@H]2C3=O)O1", "note": "[rotenone]", "values": [
      {"measurement": "degree of efficacy in inducing mitochondrial O2^•− production (rank order)", "setting": "[1]; [10]", "value": "antimycin A>FCCP>>rotenone>>malonic acid"},
      {"measurement": "degree of efficacy in inducing mitochondrial O2^•− production (rank order)", "setting": "[2]; [11]", "value": "antimycin A>FCCP>>rotenone"}
    ]},
    {"compound": "antimycin A", "values": [
      {"measurement": "degree of efficacy in inducing mitochondrial O2^•− production (rank order)", "setting": "[1]; [10]", "value": "antimycin A>FCCP>>rotenone>>malonic acid"},
      {"measurement": "degree of efficacy in inducing mitochondrial O2^•− production (rank order)", "setting": "[2]; [11]", "value": "antimycin A>FCCP>>rotenone"}
    ]}
  ]
}
